Measured values as given in patent US5965582A, “N-benzylindole and benzopyrazole derivatives with anti-asthmatic, anti-allergic, anti-inflammatory and immunemodulating effect” (ASTA Medica Aktiengesellschaft, priority 1994, dated 1999).
Where a name gives a salt, the structure may show the parent alone.

Columns and labels:
[1] = test system: IL-4 release from murine T-helper cells (D10.G4); assay: Inhibition of anti-CD3-induced release of interleucin (IL)-4 in vitro (CIL4TC); type: cell-based; conditions: anti-CD3-induced IL-4 release; for CIL4TC % inhibition: with 10 000 nmol/l; for IC50: 16 hours
Method: (§1) Inhibition of anti-CD3-induced release of interleucin (IL)-4 (CIL4TC) and IL-5-release (CIL5TC) in vitro
(§2) Murine T-helper cells (D10.G4) were used as IL-4/IL-5-producing cells. These cells were pre-incubated with the test substances for 30 minutes at 37° C. The cells were then stimulated at 37° C. to produce interleucins by adding a monoclonal antibody against the T-cell receptor domain CD3 (anti-CD3). After 16 hours, the cells were centrifuged off and the released interleucins were quantified in the cell supernatant with ELISAs for murine IL-4 and IL-5.

[2] = test system: allergically-induced histamine release from mast cells of the peritoneal and pleura cavities; assay: Inhibition of allergically-induced histamine release in-vitro (CHIR); type: cell-based, Sprague-Dawley rats; conditions: for IC50: allergically-induced histamine release, rat mast cells, in vitro; for CHIR % inhibition: with 10 [μmol/l] (footnote: concentration unit 10,000 nmol/l)
Method: Inhibition of allergically-induced histamine release in-vitro (CHIR)
Meth. […] Sprague-Dawley rats were sensitised against egg albumin (EA) by subcutaneous injection of 30 mg EA with killed Bordetella pertussis bacteria as adjuvant. Four weeks later, the mast cells of the peritoneal and pleura cavities were isolated from these animals. The cells were washed, resuspended in tris gel CM (the composition of tris gel CM buffer is as follows:
the rest is water, the pH value of the solution is 7.6) buffer and pre-incubated with the test substances for 15 minutes at 37° C. The cells were then stimulated at 37° C. by adding the antigen EA to release histamine.

[3] = test system: IL-5 release from murine T-helper cells (D10.G4); assay: Inhibition of anti-CD3-induced IL-5-release in vitro (CIL5TC); type: cell-based; conditions: 16 hours
Method: as §1, §2

[4] = test system: eosinophilia in the lavage; assay: Late phase eosinophilia model in sensitised guinea pigs (bronchoalveolar lavage); type: in vivo, guinea pigs (Pirbright White)
Method: The in vitro investigations with D-22557 and D-22558 were continued in vivo (late phase eosinophilia model) in sensitised guinea pigs
Male guinea pigs (Pirbright White, 200-250 g. Charles River Wiga, Sulfeld) were actively sensitised using a s.c. injection cf ovalbumin (10μg+100 mg aluminium hydroxide) and boosted 2 weeks later. One week after the booster injection the animals were exposed for 30 seconds to an aerosol made from 0.5% ovalbumin solution. 24 hours later brochoalveolar lavage (BAL) was carried out with 2×5 ml physiol. salt solution in animals sacrificed using an overdose of pentobarbital sodium and desanguinated. The lavage fluid was pooled, centrifuged for 10 minutes at 400×g and the cell pellet resuspended in 1 ml physiological salt solution. The eosinophiles were counted in a Neubauer chamber after staining by using a Becton Dickinson eosinophile test kit. Percentage Inhibition of the eosinophilia in the lavage was calculated in percent by comparing the eosinophile count of the groups treated with substance with the eosinolphile count of normal (unchallenged) and challenged control groups not treated with the substance. Each group numbered 10 animals. Test substances were either given prophylactically 2 hours before allergen challenge (-2 h) or therapeutically 4 hours after challenge (+4 h). When the therapeutic application was investigated, the animals (all groups) received azelastin (10 μg/kg po) 2 hours before allergen challenge to avoid deaths arising due to the onset of early phase bronchoconstriction.

[5] = 5 mg/kg ip, -2 h (before allergen challenge)

CCOC(=O)Nc1ccc(N2CCc3c([nH]c4ccccc34)C2)nc1N [D-22559, N-(6-amino-5-ethoxycarbonylamino-(-2-pyridyl))-1,2,3,4-tetrahydro-β-carboline]
CIL4TC % inhibition [1]: 51% | IC50 ([2]; Mast cell): 3.4 µM | IC50 ([3]; Mus musculus): 6.6 µM

Fc1ccc(Cn2cc(CCCNc3cccnc3)c3ccccc32)cc1 [D-22686, N-(3-pyridyl-yl)-3-3[1-(4-fluorobenzyl)indole-3-yl]propylamine]
CIL4TC % inhibition [1]: 41% | IC50 ([2]; Mast cell): 0.2 µM | IC50 ([3]; Mus musculus): 7.31 µM

Fc1ccc(Cn2cc(CCNc3cccnc3)c3ccccc32)cc1.O=C(O)/C=C\C(=O)O [D-22557, N-(pyridine-3-yl)-2-[1-(4-fluorobenzyl)indole-3-yl]ethylamine maleate]
% Inhibition of the eosinophilia in the lavage ([4]; 0.5 mg/kg ip, -2 h (before allergen challenge)): 59% | % Inhibition of the eosinophilia in the lavage ([4]; 1 mg/kg ip, -2 h (before allergen challenge)): 42% | % Inhibition of the eosinophilia in the lavage [4, 5]: 50%

Cn1cc(CCCNc2ccncc2)c2ccccc21 [D-22697, N-(4-pyridyl-yl)-3-(1-methylindole-3-yl)propylamine]
IC50 ([1]; Mus musculus): 7.29 µM | IC50 ([3]; Mus musculus): 2.88 µM

CCOC(=O)Nc1ccc(OC)nc1NCCCc1cn(Cc2ccc(F)cc2)c2ccccc12 [D-22993]
IC50 [1]: 8.97 µM | IC50 [2]: 0.54 µM | IC50 [3]: 6.94 µM

c1ccc(Cn2cc(CCNc3ccncc3)c3ccccc32)cc1 [D-22685, N-(4-pyridyl-yl)-2-(1-benzylindole-3-yl)ethylamine maleate]
IC50 ([1]; Mus musculus): 8.58 µM | CHIR % inhibition [2]: 33% | IC50 ([3]; Mus musculus): 6.89 µM

O=C(Cc1cn(Cc2ccc(F)cc2)c2ccccc12)Nc1ccncc1 [D-22558, N-(4-pyridyl)-[1-(4-fluorobenzyl)indole-3-yl]acetamide]
IC50 ([1]; Mus musculus): 7.97 µM | % Inhibition of the eosinophilia in the lavage [4, 5]: 41% | % Inhibition of the eosinophilia in the lavage ([4]; 10 mg/kg ip, +4 h (after challenge), animals received azelastin 10 μg/kg po 2 hours before challenge): 59% | % Inhibition of the eosinophilia in the lavage ([4]; 10 mg/kg po, -2 h (before allergen challenge)): 23% | % Inhibition of the eosinophilia in the lavage ([4]; 30 mg/kg po, -2 h (before allergen challenge)): 35% | IC50 ([2]; Mast cell): 0.016 µM | IC50 ([3]; Mus musculus): 1.52 µM

CCn1cc(CC(=O)Nc2ccncc2)c2ccccc21 [D-22693, N-(4-pyridyl-yl)-2-(1-ethylindole-3-yl)acetamide]
CIL4TC % inhibition [1]: 48% | IC50 ([2]; Mast cell): 0.4 µM | IC50 ([3]; Mus musculus): 2.7 µM

Fc1ccc(Cn2cc(CCCNc3ccncc3)c3ccccc32)cc1 [D-22698, N-(4-pyridyl-yl)-3-[1-(4-fluorobenzyl)indole-3-yl]propylamine]
CIL4TC % inhibition [1]: 38% | IC50 ([3]; Mus musculus): 7.77 µM

Fc1ccc(Cn2cc(CCNc3ccncc3)c3ccccc32)cc1 [D-22561, N-(4-pyridyl-yl)-2-[1-(4-fluorobenzyl)indole-3-yl]ethylamine maleate]
IC50 ([1]; Mus musculus): 5.68 µM | CHIR % inhibition [2]: 15% | IC50 ([3]; Mus musculus): 3.21 µM

CCOC(=O)Nc1ccc(OC)nc1NCCc1cn(Cc2ccccc2)c2ccccc12 [D-22992, N-(3-ethoxycarbonylamino-6-methoxy-(2-pyridyl))-2-(1-benzylindole-3-yl)ethylamine]
IC50 ([1]; Mus musculus): 9.73 µM | IC50 ([2]; Mast cell): 0.68 µM | IC50 ([3]; Mus musculus): 6.24 µM
